# Measured values taken from patent US10358454B2, “Marinopyrrole derivatives and methods of making and using same” (H. LEE MOFFITT CANCER CENTER AND RESEARCH INSTITUTE, INC., priority 2014, dated 2019).
# “Also recorded” adds a separate entry of the source. Read-outs that look alike come from different tables or passages of the source.
# Columns and labels:
# Mcl-1/Bim = Mcl-1/Bim (Homo sapiens, UniProt Q07820); experiment: Mcl-1/Bim ELISA (GST-Mcl-1 binding to biotinylated Bim BH3 peptide); conditions: for selectivity profile Mcl-1 vs Bcl-xL in words: from Mcl-1/Bim and Bcl-xL/Bim ELISA; for fold loss of potency against Mcl-1/Bim: 1-15 and 1-13 vs 1-10, 1-14 vs 1-11, 1-16 vs 1-15, 1-12 vs 1-9, 1-22, 1-21, 1-20 vs 1-23, 1-37 and N-Me methoxy analogue vs (±)-1; for selectivity for Mcl-1 over Bcl-xL (Mcl-1/Bim over Bcl-xL/Bim): ratio of ELISA IC50 values
# Chain of Mcl-1/Bim (Q07820 whole entry): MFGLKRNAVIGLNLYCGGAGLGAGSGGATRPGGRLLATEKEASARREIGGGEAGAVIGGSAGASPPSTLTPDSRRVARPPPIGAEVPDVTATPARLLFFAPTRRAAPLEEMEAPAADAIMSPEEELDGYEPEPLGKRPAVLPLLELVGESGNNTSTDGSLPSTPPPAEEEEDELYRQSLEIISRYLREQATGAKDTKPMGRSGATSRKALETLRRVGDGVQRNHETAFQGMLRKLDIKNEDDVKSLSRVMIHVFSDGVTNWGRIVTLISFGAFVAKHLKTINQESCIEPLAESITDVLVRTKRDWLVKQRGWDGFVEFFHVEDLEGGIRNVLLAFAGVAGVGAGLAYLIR
# Experimental: (§1) ELISAs were performed using a modified version of a previously described procedure (Doi K et al. J. Biol. Chem. 2012, 287, 10224-10235). Briefly, 40 nM of biotinylated Bim BH3 peptide (Biomatik) in SuperBlock blocking buffer (Pierce) was incubated in high-binding capacity streptavidin-coated plates (Pierce) for 2 h. Compounds were diluted in 120 μl of PBS containing 10 nM of GST-Mcl-1 or GST-Bcl-xL in 1.5 mL tubes for 15 min. Wells were washed with wash buffer (PBS containing 0.05% Tween-20) and then 100 μL of the compound/GST-protein mixture was transferred to the wells. The plates were incubated for 2 h, and then the wells were washed with wash buffer. HRP-conjugated anti-GST antibody (Bethyl Laboratories) was diluted 1:2000 in SuperBlock and 100 μL was transferred to each well. The plate was incubated for 1 h, and then the wells were washed with wash buffer followed by PBS. 100 μL of SureBlue TMB Microwell Peroxidase Substrate (VWR) was added to each well and plates were developed for 5-10 min. 100 μL of 1 N HCl was added to each well to stop the reaction and absorbance was read at 450 nm using a μQuant plate reader (Bio-Tek).
# (§2) ELISAs were performed using a similar procedure as previously described (Doi K, et al. J. Biol. Chem. 2012, 287, 10224-10235). Briefly, 40 nM of biotinylated Bim BH3 peptide (Biomatik) in SuperBlock blocking buffer (Pierce) was incubated in high-binding capacity streptavidin-coated plates (Pierce) for 2 h. Compounds were diluted in 120 μl of PBS containing 10 nM of GST-Mcl-1 or GST-Bcl-xL in 1.5 mL tubes for 15 min. Wells were washed with wash buffer (PBS containing 0.05% Tween-20) and then 100 μL of the compound/GST-protein mixture was transferred to the wells. The plates were incubated for 2 h, and then wells were washed with wash buffer. HRP-conjugated anti-GST antibody (Bethyl Laboratories) was diluted 1:2000 in SuperBlock and 100 μL was transferred to each well. The plate was incubated for 1 h, and then wells were washed with wash buffer followed by PBS. 100 μL of SureBlue TMB Microwell Peroxidase Substrate (VWR) was added to each well and plates were developed for 5-10 min. 100 μL of 1 N HCl was added to each well to stop the reaction and absorbance was read at 450 nm using μQuant plate reader (Bio-Tek).
# Bcl-xL/Bim = Bcl-xL/Bim (Homo sapiens, UniProt Q07817); experiment: Bcl-xL/Bim ELISA (GST-Bcl-xL binding to biotinylated Bim BH3 peptide)
# Chain of Bcl-xL/Bim (Q07817 whole entry): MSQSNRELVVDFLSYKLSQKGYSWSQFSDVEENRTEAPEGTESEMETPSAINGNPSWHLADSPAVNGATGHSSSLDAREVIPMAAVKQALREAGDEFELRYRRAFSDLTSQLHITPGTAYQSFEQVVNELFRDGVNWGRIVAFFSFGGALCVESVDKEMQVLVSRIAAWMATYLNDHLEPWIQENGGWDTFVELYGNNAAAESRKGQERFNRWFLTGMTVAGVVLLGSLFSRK
# Experimental: as §1, §2
# [1] = Table 2-B, n ≥ 3 unless specified, read-out: Bcl-xL/Bim IC50 (average ± SEM)
# [2] = Table 3-A structure I, Bcl-xL at 10 nM, n ≥ 3, read-out: Bcl-xL-Bim IC50 (average ± SEM)
# [3] = Table 2-B, n ≥ 3, read-out: Mcl-1/Bim IC50 (average ± SEM)
# [4] = Table 3-A structure I, Mcl-1 at 10 nM, n ≥ 3, read-out: Mcl-1-Bim IC50 (average ± SEM)
# [5] = read-out: IC50 to inhibit the binding of Mcl-1 to Bim
# [6] = read-out: IC50 to inhibit Bcl-xL/Bim binding
# [7] = Table 2-A, n ≥ 3, read-out: Bcl-xL/Bim IC50 (average ± SEM)
# [8] = Table 3-B structure II, n ≥ 3, read-out: Bcl-xL-Bim IC50 (average ± SEM)
# [9] = Table 2-A, n ≥ 3, read-out: Mcl-1/Bim IC50 (average ± SEM)
# [10] = Table 3-B structure II, n ≥ 3, read-out: Mcl-1-Bim IC50 (average ± SEM)
smiles,measurement,setting,value
O=C(c1ccc(C(F)(F)F)cc1O)c1[nH]c(Cl)c(Cl)c1-n1c(C(=O)c2ccc(C(F)(F)F)cc2O)cc(Cl)c1Cl [Compound 1-1],selectivity profile Mcl-1 vs Bcl-xL in words,Mcl-1/Bim,dual Mcl-1 and Bcl-XL antagonists
"Cc1cc(O)c(C(=O)c2[nH]c(Cl)c(Cl)c2-n2c(C(=O)c3cc(Cl)c(C)cc3O)cc(Cl)c2Cl)cc1Cl [Compound 1-2, (4,4′,5,5′-Tetrachloro-1′H-1,3′-bipyrrole-2,2′-diyl)bis((5-chloro-2-hydroxy-4-methylphenyl)methanone)]",IC50,Bcl-xL/Bim; [1],2.5 ± 0.4 µM
same,IC50,Bcl-xL/Bim; [2],2.5 ± 0.4 µM
same,IC50,Mcl-1/Bim; [3],2.6 ± 0.6 µM
same,IC50,Mcl-1/Bim; [4],2.6 ± 0.6 µM
same,selectivity profile Mcl-1 vs Bcl-xL in words,Mcl-1/Bim,dual Mcl-1 and Bcl-XL antagonists
"O=C(c1ccc(OS(=O)(=O)C(F)(F)F)cc1O)c1[nH]c(Cl)c(Cl)c1-n1c(C(=O)c2ccc(OS(=O)(=O)C(F)(F)F)cc2O)cc(Cl)c1Cl [Compound 1-6, (4,4′,5,5′-tetrachloro-1′H-1,3′-bipyrrole-2,2′-diyl)bis(((2-hydroxy-4-hydroxytrifluoromethanesulfonate)-phenyl)methanone)]",IC50,Bcl-xL/Bim; [1],2.5 ± 0.7 µM
same,IC50,Bcl-xL/Bim; [2],2.1 ± 0.7 µM
same,IC50,Mcl-1/Bim; [3],1 ± 0.3 µM
same,IC50,Mcl-1/Bim; [4],1 ± 0.3 µM
same,IC50,Mcl-1/Bim; [5],1 µM
O=C(c1ccc(O)cc1O)c1[nH]c(Cl)c(Cl)c1-n1c(C(=O)c2ccc(O)cc2O)cc(Cl)c1Cl [Compound 1-7],IC50,Bcl-xL/Bim; [1],> 50 µM
same,IC50,Bcl-xL/Bim; [2],> 50 µM
same,activity against Mcl-1/Bim in words,Mcl-1/Bim,lost potency
O=C(c1cc(Cl)c(O)cc1O)c1[nH]c(Cl)c(Cl)c1-n1c(C(=O)c2cc(Cl)c(O)cc2O)cc(Cl)c1Cl [Compound 1-8],IC50,Bcl-xL/Bim; [1],> 50 µM
same,IC50,Bcl-xL/Bim; [2],> 50 µM
CCOC(=O)CSc1ccc(C(=O)c2[nH]c(Cl)c(Cl)c2-n2c(C(=O)c3ccc(SCC(=O)OCC)cc3O)cc(Cl)c2Cl)c(O)c1 [Compound 1-9],fold enhancement of potency against Bcl-xL/Bim,Bcl-xL/Bim; 1-9 vs 1-15,over 83 fold
same,IC50,Bcl-xL/Bim; [2],1.2 ± 0.2 µM
same,fold improvement of potency against Mcl-1/Bim,Mcl-1/Bim; 1-9 vs 1-15,3.4 fold
same,IC50,Mcl-1/Bim; [4],1.8 ± 0.3 µM
"O=C(c1ccc(SCc2ccccc2)cc1O)c1[nH]c(Cl)c(Cl)c1-n1c(C(=O)c2ccc(SCc3ccccc3)cc2O)cc(Cl)c1Cl [Compound 1-10, (4,4′,5,5′-Tetrachloro-1′H-1,3′-bipyrrole-2,2′-diyl)bis(((2-hydroxy-4-benzylthio)phenyl)methanone)]",IC50,Bcl-xL/Bim; [6],0.6 µM
same,IC50,Mcl-1/Bim; [4],0.7 ± 0.2 µM
same,selectivity profile Mcl-1 vs Bcl-xL in words,Mcl-1/Bim,most potent dual Mcl-1 and Bcl-xL antagonists
COc1ccc(CSc2ccc(C(=O)c3[nH]c(Cl)c(Cl)c3-n3c(C(=O)c4ccc(SCc5ccc(OC)cc5)cc4O)cc(Cl)c3Cl)c(O)c2)cc1 [Compound 1-11],IC50,Bcl-xL/Bim; [2],0.6 ± 0.1 µM
same,IC50,Mcl-1/Bim; [3],0.7 ± 0.1 µM
CCOC(=O)CS(=O)(=O)c1ccc(C(=O)c2[nH]c(Cl)c(Cl)c2-n2c(C(=O)c3ccc(S(=O)(=O)CC(=O)OCC)cc3O)cc(Cl)c2Cl)c(O)c1 [Compound 1-12],IC50,Bcl-xL/Bim; [1],> 50 µM
same,fold loss of potency against Mcl-1/Bim,Mcl-1/Bim,21 fold
same,IC50,Mcl-1/Bim; [3],37.3 ± 3.1 µM
"O=C(c1ccc(S(=O)(=O)Cc2ccccc2)cc1O)c1[nH]c(Cl)c(Cl)c1-n1c(C(=O)c2ccc(S(=O)(=O)Cc3ccccc3)cc2O)cc(Cl)c1Cl [Compound 1-13, (4,4′,5,5′-Tetrachloro-1′H-1,3′-bipyrrole-2,2′-diyl)bis(((2-hydroxy-4-benzylsulfonyl)phenyl)methanone)]",IC50,Bcl-xL/Bim; [2],69.3 ± 5.8 µM
same,fold loss of potency against Mcl-1/Bim,Mcl-1/Bim,16 fold
same,IC50,Mcl-1/Bim; [3],11.2 ± 4 µM
same,IC50,Mcl-1/Bim; [4],7.3 ± 1.4 µM
COc1ccc(CS(=O)(=O)c2ccc(C(=O)c3[nH]c(Cl)c(Cl)c3-n3c(C(=O)c4ccc(S(=O)(=O)Cc5ccc(OC)cc5)cc4O)cc(Cl)c3Cl)c(O)c2)cc1 [Compound 1-14],fold loss of potency against Mcl-1/Bim,Mcl-1/Bim,25 fold
same,IC50,Mcl-1/Bim; [3],17.4 ± 3.1 µM
O=C(O)CSc1ccc(C(=O)c2[nH]c(Cl)c(Cl)c2-n2c(C(=O)c3ccc(SCC(=O)O)cc3O)cc(Cl)c2Cl)c(O)c1 [Compound 1-15],IC50,Bcl-xL/Bim; [1],> 100 µM
same,IC50,Bcl-xL/Bim; [2],> 100 µM
same,IC50,Bcl-xL/Bim; [6],> 100 µM
same,fold loss of potency against Mcl-1/Bim,Mcl-1/Bim,8.7 fold
same,IC50,Mcl-1/Bim; [3],6.1 ± 1.3 µM
same,IC50,Mcl-1/Bim; [4],6.1 ± 1.3 µM
same,selectivity profile Mcl-1 vs Bcl-xL in words,Mcl-1/Bim,much more selective for Mcl-1 over Bcl-xL
same,selectivity for Mcl-1 over Bcl-xL (Mcl-1/Bim over Bcl-xL/Bim),Mcl-1/Bim,over 16 fold
same,IC50,Mcl-1/Bim; read-out: IC50 to disrupt Mcl-1/Bim binding,6.1 µM
O=C(O)CS(=O)(=O)c1ccc(C(=O)c2[nH]c(Cl)c(Cl)c2-n2c(C(=O)c3ccc(S(=O)(=O)CC(=O)O)cc3O)cc(Cl)c2Cl)c(O)c1 [Compound 1-16],activity against Mcl-1/Bim in words,Mcl-1/Bim,lost potency
same,fold loss of potency against Mcl-1/Bim,Mcl-1/Bim,10 fold
same,IC50,Mcl-1/Bim; [4],63 ± 5.4 µM
"CCOC(=O)Cn1cc(-c2cc(O)c(C(=O)c3[nH]c(Cl)c(Cl)c3-n3c(C(=O)c4cc(Cl)c(-c5cn(CC(=O)OCC)nn5)cc4O)cc(Cl)c3Cl)cc2Cl)nn1 [Compound 1-17, Diethyl 2,2′-(4,4′-((4,4′,5,5′-tetrachloro-1′H-1,3′-bipyrrole-2,2′-dicarbonyl)bis(2-chloro-5-hydroxy-4,1-phenylene))bis(1H-1,2,3-triazole-4,1-diyl))diacetate]",activity against Bcl-xL/Bim in words,Bcl-xL/Bim,not active
same,IC50,Bcl-xL/Bim; [7],> 100 µM
same,IC50,Bcl-xL/Bim; [8],> 100 µM
same,IC50,Mcl-1/Bim; [9],7.8 ± 1.5 µM
same,IC50,Mcl-1/Bim; [10],7.8 ± 1.5 µM
same,selectivity for Mcl-1 over Bcl-xL (Mcl-1/Bim over Bcl-xL/Bim),Mcl-1/Bim,12.9 fold
same,IC50,Mcl-1/Bim; [5],7.8 µM
"CC(C)(C)OC(=O)Cn1cc(-c2cc(O)c(C(=O)c3[nH]c(Cl)c(Cl)c3-n3c(C(=O)c4cc(Cl)c(-c5cn(CC(=O)OC(C)(C)C)nn5)cc4O)cc(Cl)c3Cl)cc2Cl)nn1 [Compound 1-18, Di-tert-butyl 2,2′-(4,4′-((4,4′,5,5′-tetrachloro-1′H-1,3′-bipyrrole-2,2′-dicarbonyl)bis(2-chloro-5-hydroxy-4,1-phenylene))bis(1H-1,2,3-triazole-4,1-diyl))diacetate]",selectivity for Mcl-1 over Bcl-xL (Mcl-1/Bim over Bcl-xL/Bim),Mcl-1/Bim,8.3 fold
"CCOC(=O)Cn1cc(-c2ccc(C(=O)c3[nH]c(Cl)c(Cl)c3-n3c(C(=O)c4ccc(-c5cn(CC(=O)OCC)nn5)cc4O)cc(Cl)c3Cl)c(O)c2)nn1 [Compound 1-24, Diethyl 2,2′-(4,4′-((4,4′,5,5′-tetrachloro-1′H-1,3′-bipyrrole-2,2′-dicarbonyl)bis(3-hydroxy-4,1-phenylene))bis(1H-1,2,3-triazole-4,1-diyl))diacetate]",activity against Bcl-xL/Bim in words,Bcl-xL/Bim,not tolerated; also recorded: not active
same,IC50,Bcl-xL/Bim; [7],> 100 µM
same,IC50,Bcl-xL/Bim; [8],> 100 µM
same,IC50,Mcl-1/Bim; [9],18.4 ± 0.3 µM
same,IC50,Mcl-1/Bim; [10],18.4 ± 0.3 µM
same,selectivity for Mcl-1 over Bcl-xL (Mcl-1/Bim over Bcl-xL/Bim),Mcl-1/Bim,5.4 fold
same,IC50,Mcl-1/Bim; [5],18.4 µM
"CC(C)(C)OC(=O)Cn1cc(-c2ccc(C(=O)c3[nH]c(Cl)c(Cl)c3-n3c(C(=O)c4ccc(-c5cn(CC(=O)OC(C)(C)C)nn5)cc4O)cc(Cl)c3Cl)c(O)c2)nn1 [Compound 1-25, Di-tert-butyl 2,2′-(4,4′-((4,4′,5,5′-tetrachloro-1′H-1,3′-bipyrrole-2,2′-dicarbonyl)bis(3-hydroxy-4,1-phenylene))bis(1H-1,2,3-triazole-4,1-diyl))diacetate]",selectivity for Mcl-1 over Bcl-xL (Mcl-1/Bim over Bcl-xL/Bim),Mcl-1/Bim,1.6 fold
"O=C(O)Cn1cc(-c2ccc(C(=O)c3[nH]c(Cl)c(Cl)c3-n3c(C(=O)c4ccc(-c5cn(CC(=O)O)nn5)cc4O)cc(Cl)c3Cl)c(O)c2)nn1 [Compound 1-26, 2,2′-(4,4′-((4,4′,5,5′-Tetrachloro-1′H-1,3′-bipyrrole-2,2′-dicarbonyl)bis(3-hydroxy-4,1-phenylene))bis(1H-1,2,3-triazole-4,1-diyl))diacetic acid]",activity against Bcl-xL/Bim in words,Bcl-xL/Bim,not tolerated; also recorded: not active
same,IC50,Bcl-xL/Bim; [7],> 50 µM
same,IC50,Bcl-xL/Bim; [8],> 50 µM
same,IC50,Mcl-1/Bim; [9],16.5 ± 1.9 µM
same,IC50,Mcl-1/Bim; [10],16.5 ± 1.9 µM
same,selectivity for Mcl-1 over Bcl-xL (Mcl-1/Bim over Bcl-xL/Bim),Mcl-1/Bim,3.0 fold
same,IC50,Mcl-1/Bim; [5],16.5 µM
